Data as given in US9255090B2, “Heterocyclyl derivatives and their use as prostaglandin D2 receptor modulators” (Actelion Pharmaceuticals Ltd., priority 2012, dated 2016).

Target: hCRTH2 receptor (Homo sapiens (Human), UniProt Q9Y5Y4)
Assay: hCRTH2 receptor membranes radioligand (3H-PGD2) displacement assay
Type: binding
Settings: 3H-PGD2 radioligand displacement, HEK293-hCRTH2 membranes
In short: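 Compound was first mixed with buffer, then 3H-PGD2 was added at 2.5 nM, and the reaction was started with hCRTH2 membranes from HEK293 cells at 20 μg/well. After 90 min at room temperature, mixtures were filtered and washed with ice-cold buffer, and retained radioactivity was counted.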

hCRTH2 receptor, sequence (Q9Y5Y4 whole entry): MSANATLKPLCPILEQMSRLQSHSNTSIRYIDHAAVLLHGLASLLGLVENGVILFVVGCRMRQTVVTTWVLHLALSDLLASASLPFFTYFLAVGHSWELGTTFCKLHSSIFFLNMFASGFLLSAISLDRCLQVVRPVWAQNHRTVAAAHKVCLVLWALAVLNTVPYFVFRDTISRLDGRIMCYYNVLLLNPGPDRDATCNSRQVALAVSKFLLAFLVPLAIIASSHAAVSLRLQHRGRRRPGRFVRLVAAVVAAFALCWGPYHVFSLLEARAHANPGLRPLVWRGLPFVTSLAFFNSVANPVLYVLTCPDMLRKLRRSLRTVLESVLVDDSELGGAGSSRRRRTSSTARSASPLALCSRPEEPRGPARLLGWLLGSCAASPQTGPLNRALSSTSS

Row | Compound | IC50 [nM]
1 | COc1cc(OC(C)C(=O)O)ccc1-c1ccc(F)c2c1CN(C(=O)OCc1ccccc1)CC2 (centres unmarked) [Example 202, 8-[4-(1-Carboxy-ethoxy)-2-methoxy-phenyl]-5-fluoro-3,4-dihydro-1H-isoquinoline-2-carboxylic acid benzyl ester] | 179
2 | CCOc1ccc(CC(=O)O)cc1-c1ccc(F)c2c1CN(C(=O)CC(C)c1ccc(F)cc1)CC2 (centres unmarked) [Example 212, (4-Ethoxy-3-{5-fluoro-2-[3-(4-fluoro-phenyl)-butyryl]-1,2,3,4-tetrahydro-isoquinolin-8-yl}-phenyl)-acetic acid] | 11.4
3 | CCOc1ccc(CC(=O)O)cc1-c1ccc(F)c2c1CN(C(=O)C(C)Cc1ccccc1)CC2 (centres unmarked) [Example 213] | 111
4 | CCCc1ccc(CC(=O)O)cc1-c1ccc(F)c2c1CN(C(=O)OCc1ccccc1)CC2 [Example 215, 8-(5-Carboxymethyl-2-propyl-phenyl)-5-fluoro-3,4-dihydro-1H-isoquinoline-2-carboxylic acid benzyl ester] | 3.6
5 | CC(C)c1cc(CC(=O)O)ccc1-c1ccc(F)c2c1CN(C(=O)OCc1ccccc1)CC2 [Example 216, 8-(4-Carboxymethyl-2-isopropyl-phenyl)-5-fluoro-3,4-dihydro-1H-isoquinoline-2-carboxylic acid benzyl ester] | 19.4
6 | COc1cc(CC(=O)O)cc(OC)c1-c1ccc(F)c2c1CN(C(=O)OCc1ccccc1)CC2 [Example 218, 8-(4-Carboxymethyl-2,6-dimethoxy-phenyl)-5-fluoro-3,4-dihydro-1H-isoquinoline-2-carboxylic acid benzyl ester] | 1.7
7 | CCOc1ccc(CC(=O)O)cc1-c1ccc(F)c2c1CN(C(=O)[C@@H]1C[C@H]1c1ccccc1)CC2 [Example 220, {4-Ethoxy-3-[5-fluoro-2-((1R,2R)-2-phenyl-cyclopropanecarbonyl)-1,2,3,4-tetrahydro-isoquinolin-8-yl]-phenyl}-acetic acid] | 13.5
8 | CCOc1cc(CC(=O)O)ccc1-c1ccc(F)c2c1CN(C(=O)[C@@H]1C[C@H]1c1ccccc1)CC2 [Example 231, {3-Ethoxy-4-[5-fluoro-2-((1R,2R)-2-phenyl-cyclopropanecarbonyl)-1,2,3,4-tetrahydro-isoquinolin-8-yl]-phenyl}-acetic acid] | 10.5
9 | COc1ccc(CC(=O)O)cc1-c1ccc(F)c2c1CN(C(=O)CC1(c3ccccc3)CCC1)CC2 [Example 250, (3-{5-Fluoro-2-[2-(1-phenyl-cyclobutyl)-acetyl]-1,2,3,4-tetrahydro-isoquinolin-8-yl}-4-methoxy-phenyl)-acetic acid] | 146
10 | COc1ccc(CC(=O)O)cc1-c1ccc(F)c2c1CN(C(=O)CC1(c3ccc(F)cc3)CCC1)CC2 [Example 251, [3-(5-Fluoro-2-{2-[1-(4-fluoro-phenyl)-cyclobutyl]-acetyl}-1,2,3,4-tetrahydro-isoquinolin-8-yl)-4-methoxy-phenyl]-acetic acid] | 414
11 | COc1ccc(CC(=O)O)cc1-c1ccc(F)c2c1CN(C(=O)CC1CC1)CC2 [Example 254, {3-[2-(2-Cyclopropyl-acetyl)-5-fluoro-1,2,3,4-tetrahydro-isoquinolin-8-yl]-4-methoxy-phenyl}-acetic acid] | 614
12 | COc1ccc(CC(=O)O)cc1-c1ccc(F)c2c1CN(C(=O)[C@H](C)c1ccccc1)CC2 [Example 255, {3-[5-Fluoro-2-((R)-2-phenyl-propionyl)-1,2,3,4-tetrahydro-isoquinolin-8-yl]-4-methoxy-phenyl}-acetic acid] | 981
13 | COc1ccc(CC(=O)O)cc1-c1ccc(F)c2c1CN(C(=O)[C@@H]1CCCc3ccccc31)CC2 [Example 269, {3-[5-Fluoro-2-((R)-1,2,3,4-tetrahydro-naphthalene-1-carbonyl)-1,2,3,4-tetrahydro-isoquinolin-8-yl]-4-methoxy-phenyl}-acetic acid] | 95.7
14 | CCOc1ccc(CC(=O)O)cc1-c1ccc(F)c2c1CN(C(=O)CC1(c3ccccc3F)CC1)CC2 [Example 276, [4-Ethoxy-3-(5-fluoro-2-{2-[1-(2-fluoro-phenyl)-cyclopropyl]-acetyl}-1,2,3,4-tetrahydro-isoquinolin-8-yl)-phenyl]-acetic acid] | 35.9
15 | CC(C)(CC(=O)N1CCc2c(F)ccc(-c3ccc(CC(=O)O)cc3OCC(F)(F)F)c2C1)c1ccccc1 [Example 286, [4-[5-Fluoro-2-(3-methyl-3-phenyl-butyryl)-1,2,3,4-tetrahydro-isoquinolin-8-yl]-3-(2,2,2-trifluoro-ethoxy)-phenyl]-acetic acid] | 8.9
16 | C[C@@H](CC(=O)N1CCc2c(F)ccc(-c3ccc(CC(=O)O)cc3OCC(F)(F)F)c2C1)c1ccccc1 [Example 287, [4-[5-Fluoro-2-((S)-3-phenyl-butyryl)-1,2,3,4-tetrahydro-isoquinolin-8-yl]-3-(2,2,2-trifluoro-ethoxy)-phenyl]-acetic acid] | 8.1

Row | Compound | IC50 [nM]
17 | O=C(O)Cc1ccc(-c2ccc(F)c3c2CN(C(=O)[C@@H]2C[C@H]2c2ccccc2)CC3)c(OCC(F)(F)F)c1 [Example 289, [4-[5-Fluoro-2-((1R,2R)-2-phenyl-cyclopropanecarbonyl)-1,2,3,4-tetrahydro-isoquinolin-8-yl]-3-(2,2,2-trifluoro-ethoxy)-phenyl]-acetic acid] | 1.4
18 | CC(C)Oc1ccc(CC(=O)O)cc1-c1ccc(F)c2c1CN(C(=O)CC(C)(C)c1ccccc1)CC2 [Example 291, {3-[5-Fluoro-2-(3-methyl-3-phenyl-butyryl)-1,2,3,4-tetrahydro-isoquinolin-8-yl]-4-isopropoxy-phenyl}-acetic acid] | 5.9
19 | CC(C)Oc1ccc(CC(=O)O)cc1-c1ccc(F)c2c1CN(C(=O)C[C@@H](C)c1ccccc1)CC2 [Example 292, {3-[5-Fluoro-2-((R)-3-phenyl-butyryl)-1,2,3,4-tetrahydro-isoquinolin-8-yl]-4-isopropoxy-phenyl}-acetic acid] | 2.5
20 | Cc1cccc(CCC(=O)N2CCc3c(F)ccc(-c4cc(CC(=O)O)ccc4OC(C)C)c3C2)n1 [Example 295, (3-{5-Fluoro-2-[3-(6-methyl-pyridin-2-yl)-propionyl]-1,2,3,4-tetrahydro-isoquinolin-8-yl}-4-isopropoxy-phenyl)-acetic acid] | 1.7
21 | CC(C)(CC(=O)N1CCc2c(F)ccc(-c3cc(CC(=O)O)ccc3OCC(F)(F)F)c2C1)c1ccccc1 [Example 300, [3-[5-Fluoro-2-(3-methyl-3-phenyl-butyryl)-1,2,3,4-tetrahydro-isoquinolin-8-yl]-4-(2,2,2-trifluoro-ethoxy)-phenyl]-acetic acid] | 14.8
22 | C[C@H](CC(=O)N1CCc2c(F)ccc(-c3cc(CC(=O)O)ccc3OCC(F)(F)F)c2C1)c1ccccc1 [Example 301, [3-[5-Fluoro-2-((R)-3-phenyl-butyryl)-1,2,3,4-tetrahydro-isoquinolin-8-yl]-4-(2,2,2-trifluoro-ethoxy)-phenyl]-acetic acid] | 3.6
23 | Cc1cccc(CCC(=O)N2CCc3c(F)ccc(-c4cc(CC(=O)O)ccc4OCC(F)(F)F)c3C2)n1 [Example 304, [3-{5-Fluoro-2-[3-(6-methyl-pyridin-2-yl)-propionyl]-1,2,3,4-tetrahydro-isoquinolin-8-yl}-4-(2,2,2-trifluoro-ethoxy)-phenyl]-acetic acid] | 12.6
24 | CCOc1ccc(CC(=O)O)cc1-c1ccc(F)c2c1CN(C(=O)CCc1ncccc1OC)CC2 [Example 309, (4-Ethoxy-3-{5-fluoro-2-[3-(3-methoxy-pyridin-2-yl)-propionyl]-1,2,3,4-tetrahydro-isoquinolin-8-yl}-phenyl)-acetic acid] | 32.3
25 | CCOc1ccc(CC(=O)O)cc1-c1ccc(F)c2c1CN(C(=O)CCc1cccc(F)c1)CC2 [Example 311, (4-Ethoxy-3-{5-fluoro-2-[3-(3-fluoro-phenyl)-propionyl]-1,2,3,4-tetrahydro-isoquinolin-8-yl}-phenyl)-acetic acid] | 3.9
26 | CCOc1ccc(CC(=O)O)cc1-c1ccc(F)c2c1CN(C(=O)CCc1ccccc1F)CC2 [Example 312, (4-Ethoxy-3-{5-fluoro-2-[3-(2-fluoro-phenyl)-propionyl]-1,2,3,4-tetrahydro-isoquinolin-8-yl}-phenyl)-acetic acid] | 4.8
27 | CCOc1cc(CC(=O)O)ccc1-c1ccc(F)c2c1CN(C(=O)CCc1ncccc1OC)CC2 [Example 314, (3-Ethoxy-4-{5-fluoro-2-[3-(3-methoxy-pyridin-2-yl)-propionyl]-1,2,3,4-tetrahydro-isoquinolin-8-yl}-phenyl)-acetic acid] | 46.1
28 | CCOc1cc(CC(=O)O)ccc1-c1ccc(F)c2c1CN(C(=O)CCc1ccc(F)cc1)CC2 [Example 315, (3-Ethoxy-4-{5-fluoro-2-[3-(4-fluoro-phenyl)-propionyl]-1,2,3,4-tetrahydro-isoquinolin-8-yl}-phenyl)-acetic acid] | 5.1
29 | CCOc1cc(CC(=O)O)ccc1-c1ccc(F)c2c1CN(C(=O)CCc1cccc(F)c1)CC2 [Example 316, (3-Ethoxy-4-{5-fluoro-2-[3-(3-fluoro-phenyl)-propionyl]-1,2,3,4-tetrahydro-isoquinolin-8-yl}-phenyl)-acetic acid] | 2.1
30 | CCOc1cc(CC(=O)O)ccc1-c1ccc(F)c2c1CN(C(=O)CCc1ccccc1F)CC2 [Example 317, (3-Ethoxy-4-{5-fluoro-2-[3-(2-fluoro-phenyl)-propionyl]-1,2,3,4-tetrahydro-isoquinolin-8-yl}-phenyl)-acetic acid] | 1.7
31 | CCOc1ccc(CC(=O)O)cc1-c1ccc(F)c2c1CN(C(=O)/C=C/c1ccccn1)CC2 [Example 336, {4-Ethoxy-3-[5-fluoro-2-((E)-3-pyridin-2-yl-acryloyl)-1,2,3,4-tetrahydro-isoquinolin-8-yl]-phenyl}-acetic acid] | 3.8
32 | CCOc1ccc(CC(=O)O)cc1-c1ccc(F)c2c1CN(C(=O)/C=C/c1ccn(C)n1)CC2 [Example 337, (4-Ethoxy-3-{5-fluoro-2-[(E)-3-(1-methyl-1H-pyrazol-3-yl)-acryloyl]-1,2,3,4-tetrahydro-isoquinolin-8-yl}-phenyl)-acetic acid] | 30.4
